Laboratory results: the supplement of paper PMC10307832

Columns and labels:
Experiment in all cases: relative viability (nuclei count vs DMSO), 5 days (fraction); higher = more cells survive
[1] = compound: CC1=C(C=C(C=C1)NC(=O)C2=CC(=CC=C2)C(C)(C)C#N)NC3=CC4=C(C=C3)N=CN(C4=O)C [AZ628] + C[C@@H](Oc1cc(-c2cnn(C3CCNCC3)c2)cnc1N)c1c(Cl)ccc(F)c1Cl [Crizotinib] (partner 1 µM)
How it was run: (§1)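 Relative viability divides the nuclei count in treated wells by that in vehicle wells. Lung cancer cell lines were seeded in 1536-well plates, dosed by pin tool the next day, and fixed and stained after 5 days in one step with final 0.05% Triton X-100, 1% formaldehyde and 1 ug/ml Hoechst. Dosing was a single drug or a fixed anchor-drug dose plus five library-drug doses (not always all listed) in √10 steps, and values are medians of duplicate plates imaged at 4×.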

[2] = compound: C[As](C)SC[C@H](NC(=O)CC[C@H](N)C(=O)O)C(=O)NCC(=O)O [Darinaparsin] + CC(C)C[C@H](NC(=O)[C@H](Cc1ccccc1)NC(=O)c1cnccn1)B(O)O [Bortezomib] (partner 0.002 µM)
How it was run: as §1

[3] = compound: C1CC2=C(C1)C=C(C=C2)OC3=NC(=C4C(=N3)N(C=N4)CC5=CC=C(C=C5)C6=CC=CC=C6)N[C@@H](CC7=CC=CC=C7)CO [QS11] + CC(=O)c1c(C)c2cnc(Nc3ccc(N4CCNCC4)cn3)nc2n(C2CCCC2)c1=O [Palbociclib] (partner 0.5 µM)
How it was run: as §1

[4] = compound: C1CC2=C(C1)C=C(C=C2)OC3=NC(=C4C(=N3)N(C=N4)CC5=CC=C(C=C5)C6=CC=CC=C6)N[C@@H](CC7=CC=CC=C7)CO [QS11] + N=C(N)NC(=N)NCCc1ccccc1 [Phenformin] (partner 250 µM)
How it was run: as §1

| Cell Line | relative viability ([1]; first compound 0.08 µM) | relative viability ([1]; first compound 0.253 µM) | relative viability ([1]; first compound 0.8 µM) | relative viability ([1]; first compound 2.53 µM) | relative viability ([1]; first compound 8 µM) | relative viability ([2]; first compound 0.08 µM) | relative viability ([2]; first compound 0.8 µM) | relative viability ([2]; first compound 2.53 µM) | relative viability ([2]; first compound 8 µM) | relative viability ([3]; first compound 0.08 µM) | relative viability ([3]; first compound 0.253 µM) | relative viability ([3]; first compound 0.8 µM) | relative viability ([3]; first compound 2.53 µM) | relative viability ([3]; first compound 8 µM) | relative viability ([4]; first compound 0.08 µM) | relative viability ([4]; first compound 0.253 µM) | relative viability ([4]; first compound 0.8 µM) | relative viability ([4]; first compound 2.53 µM) | relative viability ([4]; first compound 8 µM) |
| --- | --- | --- | --- | --- | --- | --- | --- | --- | --- | --- | --- | --- | --- | --- | --- | --- | --- | --- | --- |
| NCI-H1299 | 1.1 | 1.06 | 1.16 | 1.16 | 0.651 | 1.01 | 0.99 | 1.03 | 1.04 | – | – | – | – | – | – | – | – | – | – |
| NCI-H1395 | – | – | – | – | – | – | – | – | – | 0.596 | 0.654 | 0.628 | 0.664 | 0.666 | 0.397 | 0.437 | 0.425 | 0.457 | 0.453 |
| NCI-H1563 | 0.892 | 0.825 | 0.872 | 0.833 | 0.938 | 0.831 | 0.862 | 0.828 | 0.93 | – | – | – | – | – | 0.661 | 0.682 | 0.723 | 0.637 | 0.624 |
| NCI-H1623 | – | – | – | – | – | – | – | – | – | – | – | – | – | – | 0.497 | 0.576 | 0.489 | 0.548 | 0.602 |
| NCI-H1648 | – | – | – | – | – | – | – | – | – | 0.279 | 0.265 | 0.331 | 0.294 | 0.294 | – | – | – | – | – |
| NCI-H1703 | 0.538 | 0.672 | 0.405 | 0.204 | 0.192 | 0.317 | 0.338 | 0.39 | 0.33 | – | – | – | – | – | – | – | – | – | – |
| NCI-H1793 | – | – | – | – | – | – | – | – | – | 0.335 | 0.274 | 0.29 | 0.404 | 0.491 | 0.304 | 0.386 | 0.355 | 0.345 | 0.376 |
| NCI-H1944 | 1.2 | 1.09 | 0.97 | 0.973 | 0.878 | – | – | – | – | 0.312 | 0.344 | – | 0.275 | 0.254 | 0.202 | 0.204 | – | 0.196 | 0.145 |
| NCI-H2170 | 1.23 | 1.19 | 1.12 | 1.15 | 1.21 | – | – | – | – | 0.391 | 0.472 | 0.291 | 0.365 | 0.371 | 0.436 | 0.404 | 0.399 | 0.44 | 0.392 |
| NCI-H2342 | – | – | – | – | – | – | – | – | – | 0.52 | 0.541 | 0.515 | 0.474 | 0.491 | 0.632 | 0.62 | 0.638 | 0.599 | 0.615 |
| SK-MES-1 | 0.953 | 0.93 | 1.08 | 1.15 | 0.882 | – | – | – | – | 0.322 | 0.285 | 0.268 | 0.311 | 0.295 | 0.764 | 0.678 | 0.663 | 0.712 | 0.711 |
| SW 900 | – | – | – | – | – | – | – | – | – | 0.588 | 0.593 | 0.456 | 0.481 | 0.425 | 0.54 | 0.578 | 0.709 | 0.417 | 0.402 |
